Data on 1 compound can be found in patent US11905260B1, “N′-(1-naphthoyloxy)-2-(benzo[d]oxazol-2-yl)acetimidamide as an antimicrobial compound” (KING FAISAL UNIVERSITY, priority 2023, dated 2024).

One data set deals with Aspergillus flavus. Put plainly: agar plate disc-diffusion, antifungal activity by inhibition zone. Type of data set: cell-based. The conditions noted are these: Sabouraud's dextrose agar, 72 hours. As to the method: (§1) The agar plate disc-diffusion method was applied. […] The discs were then placed onto the surface of agar plates (nutrient agar for bacteria and Sabouraud's dextrose agar for fungi) seeded with the test organism. Each plate contained 15 mL of the agar medium, previously seeded with 0.2 mL of the broth culture of each organism pregrown for 18 hours. The plates were incubated at 37° C. for 48 hours, and 72 hours for fungi. The inhibition zones was measured in mm. Discs impregnated with DMSO were used as a control, and its inhibition zone was subtracted from the tested compound actual inhibition zone.

Data set [1] concerns Chrysosporium keratinophilum. The description is as above. Format: cell-based. The settings on record: Sabouraud's dextrose agar, 72 hours. As to the method: as §1
Another data set relates to different microbes. Put plainly: antimicrobial activity, overall statement. Format: cell-based. The settings on record: summary in words. As to the method: The agar plate disc-diffusion method was applied. Sterilized filter papers (6 mm in diameter) were wetted with 10 μL of a solution N′-(1-naphthoyloxy)-2-(benzo[d]oxazol-2-yl)acetimidamide (3) to be tested, containing 10 mg/mL in DMSO, and the discs were allowed to air dry. The discs were then placed onto the surface of agar plates (nutrient agar for bacteria and Sabouraud's dextrose agar for fungi) seeded with the test organism. Each plate contained 15 mL of the agar medium, previously seeded with 0.2 mL of the broth culture of each organism pregrown for 18 hours. The plates were incubated at 37° C. for 48 hours, and 72 hours for fungi. The inhibition zones was measured in mm. Discs impregnated with DMSO were used as a control, and its inhibition zone was subtracted from the tested compound actual inhibition zone.

Another data set has as its system Escherichia coli. The data set is described as follows: agar plate disc-diffusion, antibacterial activity by inhibition zone. Format: cell-based. The settings on record: nutrient agar, 37° C., 48 hours. As to the method: as §1
Another data set concerns Pseudomonas aeruginosa. Described as above. Format: cell-based. The settings on record: nutrient agar, 37° C., 48 hours. As to the method:
as §1

A further data set deals with Bacillus cereus. The description is as above. Type of data set: cell-based. The settings on record: nutrient agar, 37° C., 48 hours. As to the method: as §1
Another data set has as its system Staphylococcus aureus. The description is as above. Format: cell-based. The settings on record: nutrient agar, 37° C., 48 hours. As to the method:
as §1

Setting [2] is: A = concentration of comp. = 10,000 μL.
Setting [3] is: B = concentration of comp. = 30,000 μL.
The mark [4] stands for this setting: C = concentration of comp. = 50,000 μL.

`N/C(Cc1nc2ccccc2o1)=N\OC(=O)c1cccc2ccccc12` [compound 3, N′-(1-naphthoyloxy)-2-(benzo[d]oxazol-2-yl)acetimidamide]: the melting point was in the range of 131 to 132 °C. In the data set with Aspergillus flavus (setting [2]), the “inhibition zone, Aspergillus flavus” value is 24 mm. In addition, in the data set with Aspergillus flavus (setting [3]), the “inhibition zone, Aspergillus flavus” value is 26 mm. Further, the “inhibition zone, Aspergillus flavus” value in the data set with Aspergillus flavus (C =) stood at 37 mm. Also, in data set [1] (setting [2]), the “inhibition zone, Chrysosporium keratinophilum” value is given as 27 mm. Also, the “inhibition zone, Chrysosporium keratinophilum” value in data set [1] (setting [3]) was determined as 30 mm. In addition, the “inhibition zone, Chrysosporium keratinophilum” value in data set [1] (setting [4]) was 51 mm. Also, the “antimicrobial activities against different microbes” value with different microbes is listed as “excellent antimicrobial activities”. Moreover, in the data set on Escherichia coli (setting [2]), the “inhibition zone, Escherichia coli” value is 27 mm. Besides, the “inhibition zone, Escherichia coli” value in the data set with Escherichia coli (setting [3]) is on record as 34 mm. In the data set with Escherichia coli (setting [4]), the “inhibition zone, Escherichia coli” value was 51 mm. Moreover, the “inhibition zone, Pseudomonas aeruginosa” value with Pseudomonas aeruginosa (setting [2]) was 22 mm. Further, the “inhibition zone, Pseudomonas aeruginosa” value in the data set on Pseudomonas aeruginosa (setting [3]) is on record as 24 mm. Moreover, in the data set with Pseudomonas aeruginosa (setting [4]), the “inhibition zone, Pseudomonas aeruginosa” value amounted to 38 mm. The “inhibition zone, Bacillus Cereus” value in the data set on Bacillus cereus (setting [2]) is 23 mm. Further, the “inhibition zone, Bacillus Cereus” value in the data set with Bacillus cereus (setting [3]) worked out at 27 mm. For the same compound, the “inhibition zone, Bacillus Cereus” value in the data set on Bacillus cereus (setting [4]) came out at 36 mm. Moreover, the “inhibition zone, Staphylococcus aureus” value in the data set on Staphylococcus aureus (setting [2]) stood at 26 mm. For the same compound, the “inhibition zone, Staphylococcus aureus” value in the data set with Staphylococcus aureus (setting [3]) worked out at 30 mm. Further, the “inhibition zone, Staphylococcus aureus” value in the data set on Staphylococcus aureus (setting [4]) is recorded as 38 mm.
